Where only a bound is given, the exact number is not on record here.

Data set [1] relates to U-2940. Put plainly: Viability test on U-2940 cells, 48 h. Format: cell-based, human. Particulars: Homo sapiens, U-2940, 48 h, 48 h incubation; nd = no significant cytotoxic activity up to 100 μM. The protocol: (§1) JURKAT and CCRF-CEM (T-cell acute lymphoblastic leukemia), HL60 and K562 representing acute and chronic myeloid leukemia, respectively, the chronic lymphocytic leukemia cell line MEC-1, and the diffuse large B-cell lymphoma cell line U-2940 were cultured in Gibco RPMI 1640+GlutaMAX (Life Technologies, Carlsbad, Calif., USA) supplemented with 10% fetal bovine serum gold (FBS gold; PAA Laboratories, Pasching, Austria) and 1% PenStrep (100 U/ml penicillin and 100 μg/ml streptomycin; PAA Laboratories), and maintained at 37° C. in humidified atmosphere with 5% CO2. The diffuse large B-cell lymphoma cell line OCI-LY7 was cultured in Gibco IMDM+GlutaMAX and 25 mM HEPES (Life Technologies) containing 20% FBS gold and 1% PenStrep.
(§2) All experiments with hematological cell lines were done using phenol red-free RPMI 1640+L-glutamine (PAA Laboratories) supplemented with 1% PenStrep and 10% FBS gold, except experiments with OCI-Ly7 which were carried out in Gibco IMEM+GlutaMAX and 25 mM HEPES containing 20% FBS gold and 1% PenStrep. Cells were incubated in triplicates with increasing concentrations of the compounds for 48 h, changes in viability were determined using the cell proliferation and cytotoxicity assays EZ4U (Biomedica Group, Austria) and CellTiter-Blue Cell Viability Assay (Promega, Madison, Wis., USA) following instructions of the manufacturers. IC50 values were calculated from two independent experiments using GraphPad Prism 5 software.
(§3) Initially, compounds were biologically tested in six concentration steps (0.1 μM; 1 μM; 5 μM; 10 μM; 50 μM; and 100 μM) using the CellTiter-Blue Cell Viability Assay (Promega, Madison, Wis., USA) and an incubation time of 48 hours. […] IC50 values were calculated from at least two independent experiments with 3 replicates each. In order to evaluate the biologic activity of the new compounds, cytotoxicity was compared to that of fludarabine, an already approved drug for the treatment of various B-cell malignancies. […] Differences in IC50 values for the different cell types can be explained by the biological and genetic particularities of each subtype of B-cell Non-Hodgkin lymphoma (Stacchini A et al. Leukemia Res 1999, 23, 127-136; Sambade C et al. Int J Cancer 2006, 118, 555-563; Chang H et al. Leukemia lymphoma 1995, 19, 165-171; Tweeddale M E et al. Blood 1987, 69, 1307-1314; Tweeddale M et al. Blood 1989, 74, 572-578).

The test system of data set [2] is OCI-Ly7. The data set can be described thus: Viability test on OCI-Ly7 cells, 48 h. The data set is classed as cell-based, human. The note with it: Homo sapiens, OCI-Ly7, 48 h, 48 h incubation; nd = no significant cytotoxic activity up to 100 μM. As for the experimental part: as §1, §2, §3
Data set [3] relates to M2-10B4. Put plainly: Viability test on mouse fibroblast cell line M2-10B4, 48 h. The data set is classed as cell-based. Particulars: for IC50: Mus musculus, M210B4, 48 h, 48 h incubation, mouse fibroblast cell line. As for the experimental part: as §2
Structurally seen, the small molecule compound 1 represents a typical chalcone scaffold. It is characterized by an ortho-ethoxy-substituted phenyl part as ring A and a 2-naphthyl moiety symbolizing ring B. The focus of the present study was to guide the systematic identification of a growth inhibitor with specificity to neoplastic cells, as cytotoxicity towards healthy cells is mostly associated with adverse effects, which can be related to morbidity and mortality of the patient (Milligan D W et al. Brit J Haematol 2006, 135, 450-474). To discriminate in vitro between structural elements necessary for potent cytotoxicity towards tumor cells which, at the same time, clearly show less activity on normal cells, the compounds were additionally tested on the murine bone marrow fibroblast cell line M2-10B4. This cell line is regularly used as feeder layer when cultured with patient cells providing additional support and survival signals in particular in drug screens (Kurtova A V et al. Blood 2009, 114, 4441-4450).
as §3

The test system of data set [4] is MEC1. Put plainly: Viability test (CellTiter-Blue/EZ4U) on MEC1 cells, 48 h. Format: cell-based, human. The note with it: Homo sapiens, MEC1, 48 h, 48 h incubation; nd = no significant cytotoxic activity up to 100 μM. As for the experimental part: as §1, §2, §3

Regarding `COc1ccccc1C(=O)/C=C/c1ccc2ccccc2c1` [Compound 2, 1-(2-Methoxyphenyl)-3-(2-naphthyl)-2-propen-1-one], the IC50 in data set [1] was found to be 4.09 µM; in data set [2], 460 nM; in data set [3], 41.8 µM; in data set [4], 430 nM.

As for `CCCOc1ccccc1C(=O)/C=C/c1ccc2ccccc2c1` [Compound 3, 3-(2-Naphthyl)-1-(2-propoxyphenyl)-2-propen-1-one], the IC50 was 5.31 µM in data set [1], 100 nM in data set [2], over 100 µM in data set [3] and 130 nM in data set [4].

With `CCCCOc1ccccc1C(=O)/C=C/c1ccc2ccccc2c1` [Compound 4, 1-(2-Butoxyphenyl)-3-(2-naphthyl)-2-propen-1-one], the IC50 in data set [1] was 5.31 µM; in data set [2] it was 120 nM; in data set [3], over 100 µM; in data set [4], 700 nM.

Consider `Cc1ccccc1C(=O)/C=C/c1ccc2ccccc2c1` [Compound 6, 1-(2-Methylphenyl)-3-(2-naphthyl)-2-propen-1-one], for which the IC50 worked out at 10.3 µM in data set [1], 4920 nM in data set [2], 72 µM in data set [3] and 6360 nM in data set [4].

Take `CCOc1ccccc1C(=O)/C=C/c1ccc2cc(OC)ccc2c1` [Compound 7, 1-(2-Ethoxyphenyl)-3-(6-methoxy-2-naphthyl)-2-propen-1-one]: the IC50 in data set [1] was 24.7 µM; in data set [2], 1010 nM; in data set [3], over 100 µM; in data set [4], 7160 nM. Further, in data set [3] (mouse fibroblasts), the “cytotoxic potential on M2-10B4 (in words)” value was “no cytotoxic potential”.

Consider `CCOc1cccc(C(=O)/C=C/c2ccc3ccccc3c2)c1` [Compound 16, 3-(2-Napthyl)-1-(3-ethoxyphenyl)-2-propen-1-one], for which the melting point lay within 97 to 100 °C. For the same compound, the IC50 in data set [1] came out at 16.2 µM. Moreover, in data set [2], the IC50 turned out to be 1760 nM. This compound returned an IC50 in data set [4] of 2850 nM.

Compound `CCOc1ccc(C(=O)/C=C/c2ccc3ccccc3c2)cc1` [Compound 17, 3-(2-Napthyl)-1-(4-ethoxyphenyl)-2-propen-1-one] returned a melting point of 159 to 161 °C.

The compound `CCOc1cccc(C(=O)/C=C/c2csc3ccccc23)c1` [Compound 18, 3-(1-Benzothien-3-yl)-1-(3-ethoxyphenyl)-2-propen-1-one] returned a melting point of 103 to 106 °C. Half-maximal inhibition in data set [1] (IC50) required 7.59 µM. Also, in data set [2], the IC50 came to 1670 nM. In data set [4], the 50% inhibitory concentration (IC50) came out at 2210 nM.

Turning to `CCOc1ccc(C(=O)/C=C/c2csc3ccccc23)cc1` [Compound 19, 3-(1-Benzothien-3-yl)-1-(4-ethoxyphenyl)-2-propen-1-one], the melting point was 129 to 130 °C. The compound also showed an IC50 in data set [1] of 14.6 µM. This compound also had an IC50 in data set [2] of 4770 nM. Moreover, the midpoint of inhibition in data set [4], the IC50, lay at 7500 nM.

The compound `CCOc1cccc(C(=O)/C=C/c2cc3ccccc3[nH]2)c1` [Compound 20, 1-(3-Ethoxyphenyl)-3-(1H-indole-2-yl)-2-propen-1-one] returned a melting point of 156 to 158 °C. Further, in data set [2], the IC50 came out at 4830 nM. In data set [4], half-maximal inhibition (IC50) required 3330 nM.

For the compound `CCOc1ccc(C(=O)/C=C/c2cc3ccccc3[nH]2)cc1` [Compound 21, 1-(4-Ethoxyphenyl)-3-(1H-indole-2-yl)-2-propen-1-one], the melting point lay in the range of 178 to 181 °C. The compound also displayed an IC50 in data set [2] of 25300 nM.

On to `CCOc1ccccc1C(=O)/C=C/c1ccc2[nH]ccc2c1` [Compound 22, (E)-1-(2-Ethoxyphenyl)-3-(1H-indol-5-yl)-2-propen-1-one], for which the melting point was 151 to 153 °C. For the same compound, in data set [1], the IC50 is 1.71 µM. Half-maximal inhibition in data set [2] (IC50) required 30 nM. Besides, the IC50 in data set [4] came out at 50 nM.

With `CCOc1cccc(C(=O)/C=C/c2ccc3[nH]ccc3c2)c1` [Compound 23, (E)-1-(3-Ethoxyphenyl)-3-(1H-indol-5-yl)-2-propen-1-one], the melting point fell in the range of 121 to 123 °C. In data set [1], this compound showed an IC50 of 10 µM. Further, the IC50 in data set [2] was determined as 1470 nM. In data set [4], this compound returned an IC50 of 2600 nM.

On to `CCOc1ccc(C(=O)/C=C/c2ccc3[nH]ccc3c2)cc1` [Compound 24, (E)-1-(4-Ethoxyphenyl)-3-(1H-indol-5-yl)-2-propen-1-one], for which the melting point lay in the range of 171 to 173 °C. The compound also gave an IC50 in data set [1] of 50 µM. Besides, in data set [2], the IC50 was determined as 15900 nM. Moreover, the IC50 in data set [4] was 26600 nM.

In turn, `CCCOc1ccccc1C(=O)/C=C/c1ccc2[nH]ccc2c1` [Compound 25, (E)-3-(1H-indol-5-yl)-1-(2-propoxyphenyl)-2-propen-1-one] displayed a melting point of 114 to 116 °C. The IC50 in data set [1] was 7.1 µM. Besides, in data set [2], half-maximal inhibition (IC50) required 120 nM. The same compound showed an IC50 in data set [4] of 140 nM.

As to `CCCOc1ccccc1C(=O)/C=C/c1cc2ccccc2[nH]1` [Compound 26, (E)-3-(1H-indol-2-yl)-1-(2-propoxyphenyl)-2-propen-1-one], the melting point was in the range of 112 to 114 °C. This compound also came in with an IC50 in data set [1] of 10.1 µM. Besides, it took 80 nM to reach half-maximal inhibition in data set [2] (IC50). Half-maximal inhibition in data set [4] (IC50) was put at 40 nM.

The compound `CCOc1ccccc1C(=O)/C=C/c1cc2ccccc2s1` [Compound 27, (E)-3-(1-Benzothiophen-2-yl)-1-(2-ethoxyphenyl)-2-propen-1-one] showed a melting point of 95 to 98 °C. The compound also returned an IC50 in data set [1] of 2.31 µM. The same compound yielded an IC50 in data set [2] of 70 nM. The IC50 in data set [4] came to 60 nM.

The compound `CCOc1cccc(C(=O)/C=C/c2ccc3sccc3c2)c1` [Compound 28] came in with a melting point of 98 to 99 °C. In addition, half-maximal inhibition in data set [1] (IC50) was put at 12.9 µM. In addition, in data set [2], the IC50 turned out to be 4780 nM. Also, the IC50 in data set [4] was 5480 nM.

`CCOc1ccc(C(=O)/C=C/c2ccc3sccc3c2)cc1` [Compound 29] came in with a melting point of 149 to 151 °C. Further, it took 231000 nM to reach half-maximal inhibition in data set [4] (IC50).

`CCOc1ccccc1C(=O)/C=C/c1ccc(-c2cccs2)s1` [Compound 30, (E)-3-(2,2′-bithiophen-5-yl)-1-(2-ethoxyphenyl)-2-propen-1-one]: the IC50 came out at 3.13 µM in data set [1], 20 nM in data set [2] and 20 nM in data set [4].

`CCOc1ccccc1C(=O)/C=C/c1cc2ccccc2o1` [Compound 31, (E)-3-(1-Benzofuran-2-yl)-1-(2-ethoxyphenyl)-2-propen-1-one] yielded a melting point of 79 to 81 °C. Further, the IC50 in data set [1] came out at 7.1 µM. Besides, half-maximal inhibition in data set [2] (IC50) required 50 nM. In data set [4], this compound returned an IC50 of 200 nM.

In turn, `CCOc1cccc(C(=O)/C=C/c2cc3ccccc3o2)c1` [Compound 32, (E)-3-(1-Benzofuran-2-yl)-1-(3-ethoxyphenyl)-2-propen-1-one] showed a melting point of 127 to 129 °C. For the same compound, the IC50 in data set [1] was determined as 44.3 µM. The same compound yielded an IC50 in data set [2] of 16700 nM. The compound also came in with an IC50 in data set [4] of 6910 nM.

`CCOc1ccc(C(=O)/C=C/c2cc3ccccc3o2)cc1` [Compound 33, (E)-3-(1-Benzofuran-2-yl)-1-(4-ethoxyphenyl)-2-propen-1-one]: the melting point is 100 to 101 °C. The compound also showed an IC50 in data set [1] of 42.2 µM. The IC50 in data set [2] stood at 19500 nM. In data set [4], this compound showed an IC50 of 38800 nM.

In the case of `CCOc1cccc(C(=O)/C=C/c2ccc3c(c2)OCO3)c1` [Compound 34, (E)-3-(1,3-benzodioxol-5-yl)-1-(3-ethoxyphenyl)prop-2-en-1-one], the values for the IC50 in data set [1], in data set [2] and in data set [4] were 18.8 µM, 6350 nM and 8730 nM, respectively.

The values above are taken from patent US10280156B2, “Heteroaromatic chalcone derivatives and their medical use” (Medizinische Universität Wien, priority 2014, dated 2019).
